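Test compounds were applied to cells in 96-well plates for 48 hours at 5 doses. GI50 = concentration required for 50% inhibition of growth. At the TGI there is no net growth.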
Key:
Test in all cases: DTP human tumour cell line panel, 48 h
K-562 leukemia = system: K-562 leukemia
M14 melanoma = system: M14 melanoma
CAKI-1 renal = system: CAKI-1 renal
MDA-MB-231 breast = system: MDA-MB-231 breast
OVCAR-4 ovarian = system: OVCAR-4 ovarian
HOP-62 NSCLC = system: HOP-62 NSCLC
HCT-116 colon = system: HCT-116 colon
A498 renal = system: A498 renal
SF-539 CNS = system: SF-539 CNS
HCC-2998 colon = system: HCC-2998 colon
HS 578T breast = system: HS 578T breast
HL-60(TB) leukemia = system: HL-60(TB) leukemia
SF-268 CNS = system: SF-268 CNS
KM12 colon = system: KM12 colon
OVCAR-3 ovarian = system: OVCAR-3 ovarian
SK-OV-3 ovarian = system: SK-OV-3 ovarian
SK-MEL-5 melanoma = system: SK-MEL-5 melanoma
UACC-257 melanoma = system: UACC-257 melanoma
786-0 renal = system: 786-0 renal
SNB-75 CNS = system: SNB-75 CNS
UACC-62 melanoma = system: UACC-62 melanoma
HCT-15 colon = system: HCT-15 colon
COLO 205 colon = system: COLO 205 colon
SK-MEL-2 melanoma = system: SK-MEL-2 melanoma
SR leukemia = system: SR leukemia
OVCAR-5 ovarian = system: OVCAR-5 ovarian
NCI-H23 lung = system: NCI-H23 lung
MOLT-4 leukemia = system: MOLT-4 leukemia

Question: `NC1CCC(Nc2nc(NCc3cc(Cl)ccc3O)c3ncn(C4CCCC4)c3n2)CC1` (stereo unspecified) was tested. Which GI50 (K-562 leukemia) did it give?
Answer: 175 nM

Question: What about the TGI (K-562 leukemia) of the same compound?
Answer: 461 nM

Question: And the GI50 (M14 melanoma)?
Answer: 162 nM

Question: What about the TGI (M14 melanoma) of the same compound?
Answer: 330 nM

Question: What about the GI50 (CAKI-1 renal) of the same compound?
Answer: 295 nM

Question: What about the TGI (CAKI-1 renal) of the same compound?
Answer: 1570 nM

Question: And the GI50 (MDA-MB-231 breast)?
Answer: 186 nM

Question: What about the TGI (MDA-MB-231 breast) of the same compound?
Answer: 759 nM

Question: What about the GI50 (OVCAR-4 ovarian) of the same compound?
Answer: 183 nM

Question: What about the TGI (OVCAR-4 ovarian) of the same compound?
Answer: 778 nM

Question: What about the GI50 (HOP-62 NSCLC) of the same compound?
Answer: 245 nM

Question: And the TGI (HOP-62 NSCLC)?
Answer: 813 nM

Question: And the GI50 (HCT-116 colon)?
Answer: 64.4 nM

Question: And the TGI (HCT-116 colon)?
Answer: 660 nM

Question: What about the GI50 (A498 renal) of the same compound?
Answer: 211 nM

Question: What about the TGI (A498 renal) of the same compound?
Answer: 484 nM

Question: What about the GI50 (SF-539 CNS) of the same compound?
Answer: 166 nM

Question: And the TGI (SF-539 CNS)?
Answer: 341 nM

Question: And the GI50 (HCC-2998 colon)?
Answer: 201 nM

Question: And the TGI (HCC-2998 colon)?
Answer: 603 nM

Question: What about the GI50 (HS 578T breast) of the same compound?
Answer: 222 nM

Question: And the TGI (HS 578T breast)?
Answer: 893 nM

Question: And the GI50 (HL-60(TB) leukemia)?
Answer: 165 nM

Question: And the TGI (HL-60(TB) leukemia)?
Answer: 388 nM

Question: And the GI50 (SF-268 CNS)?
Answer: 188 nM

Question: What about the TGI (SF-268 CNS) of the same compound?
Answer: 520 nM

Question: And the GI50 (KM12 colon)?
Answer: 132 nM

Question: What about the TGI (KM12 colon) of the same compound?
Answer: 1020 nM

Question: And the GI50 (OVCAR-3 ovarian)?
Answer: 133 nM

Question: And the TGI (OVCAR-3 ovarian)?
Answer: 640 nM

Question: What about the GI50 (SK-OV-3 ovarian) of the same compound?
Answer: 494 nM

Question: And the TGI (SK-OV-3 ovarian)?
Answer: 1650 nM

Question: And the GI50 (SK-MEL-5 melanoma)?
Answer: 175 nM

Question: And the TGI (SK-MEL-5 melanoma)?
Answer: 325 nM

Question: And the GI50 (UACC-257 melanoma)?
Answer: 180 nM

Question: What about the TGI (UACC-257 melanoma) of the same compound?
Answer: 387 nM

Question: And the GI50 (786-0 renal)?
Answer: 211 nM

Question: What about the TGI (786-0 renal) of the same compound?
Answer: 624 nM

Question: And the GI50 (SNB-75 CNS)?
Answer: 114 nM

Question: What about the TGI (SNB-75 CNS) of the same compound?
Answer: 330 nM

Question: What about the GI50 (UACC-62 melanoma) of the same compound?
Answer: 149 nM

Question: What about the TGI (UACC-62 melanoma) of the same compound?
Answer: 335 nM

Question: And the GI50 (HCT-15 colon)?
Answer: 259 nM

Question: And the TGI (HCT-15 colon)?
Answer: 966 nM

Question: What about the GI50 (COLO 205 colon) of the same compound?
Answer: 96.5 nM

Question: And the TGI (COLO 205 colon)?
Answer: 238 nM

Question: What about the GI50 (SK-MEL-2 melanoma) of the same compound?
Answer: 188 nM

Question: And the TGI (SK-MEL-2 melanoma)?
Answer: 356 nM

Question: And the GI50 (SR leukemia)?
Answer: 42.2 nM

Question: What about the TGI (SR leukemia) of the same compound?
Answer: 237 nM

Question: And the GI50 (OVCAR-5 ovarian)?
Answer: 242 nM

Question: What about the TGI (OVCAR-5 ovarian) of the same compound?
Answer: 1160 nM

Question: What about the GI50 (NCI-H23 lung) of the same compound?
Answer: 153 nM

Question: What about the TGI (NCI-H23 lung) of the same compound?
Answer: 478 nM

Question: And the GI50 (MOLT-4 leukemia)?
Answer: 133 nM

Question: What about the TGI (MOLT-4 leukemia) of the same compound?
Answer: 492 nM

Reference: PubChem BioAssay (NCI)
